Laboratory results reported in patent US10179782B2, “Substituted sulfonamide compounds” (Genentech, Inc., priority 2016, dated 2019).

biological target: T1, human TRPA1 (Homo sapiens, UniProt O75762); test: TRPA1 FLIPR Tetra calcium influx assay in CHO cells (block of cinnamaldehyde-induced calcium influx); type: cell-based; details: Table 1; CHO cells expressing TRPA1; agonist cinnamaldehyde 75 uM; with vs without substituent at R2/R3; read-out: hTRPA1 CHO Ca2+ AUC EVO (IC50)
T1 construct: expressed in transfected cells; host or cells: CHO cells
T1 sequence (O75762 whole entry): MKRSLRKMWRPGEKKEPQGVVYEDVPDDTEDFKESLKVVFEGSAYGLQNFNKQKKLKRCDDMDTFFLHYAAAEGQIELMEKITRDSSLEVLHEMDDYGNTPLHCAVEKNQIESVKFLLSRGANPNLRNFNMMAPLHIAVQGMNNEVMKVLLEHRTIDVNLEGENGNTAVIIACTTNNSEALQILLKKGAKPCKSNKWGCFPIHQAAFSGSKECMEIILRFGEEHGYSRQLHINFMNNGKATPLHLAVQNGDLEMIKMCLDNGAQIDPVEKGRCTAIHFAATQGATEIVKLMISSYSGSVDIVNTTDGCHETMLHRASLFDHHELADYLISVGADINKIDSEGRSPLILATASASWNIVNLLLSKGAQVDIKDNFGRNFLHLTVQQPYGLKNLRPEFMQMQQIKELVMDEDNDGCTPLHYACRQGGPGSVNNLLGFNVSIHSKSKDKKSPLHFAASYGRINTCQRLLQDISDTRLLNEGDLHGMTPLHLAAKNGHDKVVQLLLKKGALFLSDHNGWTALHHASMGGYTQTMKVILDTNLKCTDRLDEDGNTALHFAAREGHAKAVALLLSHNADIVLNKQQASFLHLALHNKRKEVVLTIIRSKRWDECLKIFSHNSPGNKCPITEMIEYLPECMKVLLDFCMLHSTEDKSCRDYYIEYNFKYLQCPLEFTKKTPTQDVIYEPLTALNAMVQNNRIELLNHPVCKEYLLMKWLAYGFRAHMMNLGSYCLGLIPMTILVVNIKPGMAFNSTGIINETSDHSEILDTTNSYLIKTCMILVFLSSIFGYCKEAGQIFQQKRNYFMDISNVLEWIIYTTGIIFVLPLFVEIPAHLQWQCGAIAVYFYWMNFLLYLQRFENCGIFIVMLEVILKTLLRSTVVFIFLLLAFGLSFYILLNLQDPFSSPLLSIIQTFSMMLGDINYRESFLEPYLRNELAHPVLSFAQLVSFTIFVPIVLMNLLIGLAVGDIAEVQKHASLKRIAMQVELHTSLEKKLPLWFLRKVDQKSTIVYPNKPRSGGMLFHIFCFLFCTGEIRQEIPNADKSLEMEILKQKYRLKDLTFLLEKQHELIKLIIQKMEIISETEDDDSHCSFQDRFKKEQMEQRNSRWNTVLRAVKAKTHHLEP
Method in brief: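 CHO cells expressing TRPA1 were loaded with calcium dye in HBSS/20 mM HEPES, pH 7.4, 0.02% BSA, then given compound for 20 min at room temperature before ~EC80 cinnamaldehyde (75 µM human, 45 µM rat). Block of calcium influx was read on FLIPR Tetra; IC50 fitted with Hill coefficient fixed at 1.5.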

**Q.** With O=C(NCc1cc(-c2cnc(C(F)(F)F)nc2)c(Cl)cn1)[C@@H]1C[C@@H](F)CN1S(=O)(=O)c1ccc(F)cc1 [(2S,4R)-N-[[5-chloro-4-[2-(trifluoromethyl)pyrimidin-5-yl]-2-pyridyl]methyl]-4-fluoro-1-(4-fluorophenyl)sulfonyl-pyrrolidine-2-carboxamide, reference compound] as the compound, how does the IC50 read?
**A.** 42.2 nM

same assay, conditions: Table 2; CHO cells expressing TRPA1; agonist cinnamaldehyde 75 uM; 20 min compound incubation; Hill coefficient fixed to 1.5; read-out: hTRPA1 CHO Ca2+ AUC EVO (IC50)

**Q.** C[C@H]1[C@H](F)C[C@@H](C(=O)NCc2cc(C3CCN(CC(F)(F)C(F)(F)F)CC3)ncc2F)N1S(=O)(=O)c1ccc(F)cc1 [Example 94, (2S,4R,5S)-4-fluoro-N-[[5-fluoro-2-[1-(2,2,3,3,3-pentafluoropropyl)-4-piperidyl]-4-pyridyl]methyl]-1-(4-fluorophenyl)sulfonyl-5-methyl-pyrrolidine-2-carboxamide] was tested. Which IC50 did it give?
**A.** 5.52 nM

**Q.** For C[C@H]1[C@H](F)C[C@@H](C(=O)NCc2cc(-c3cnc(C(F)(F)F)nc3)c(C#N)c(C3CC3)n2)N1S(=O)(=O)c1ccc(F)cc1 [Example 142, (2S,4R,5S)—N-([5-cyano-6-cyclopropyl-4-[2-(trifluoromethyl)pyrimidin-5-yl]pyridin-2-yl]methyl)-4-fluoro-1-[(4-fluorobenzene)sulfonyl]-5-methylpyrrolidine-2-carboxamide], which IC50 is on record?
**A.** 12 nM

**Q.** C[C@H]1[C@H](F)C[C@@H](C(=O)NCc2cc(-c3ccc(C(F)(F)F)nc3)c(F)cn2)N1S(=O)(=O)c1ccc(F)cc1 [Example 36, (2S,4R,5S)-4-fluoro-N-([5-fluoro-4-[6-(trifluoromethyl)pyridin-3-yl]pyridin-2-yl]methyl)-1-[(4-fluorobenzene)sulfonyl]-5-methylpyrrolidine-2-carboxamide] was tested. Which IC50 did it give?
**A.** 26 nM

**Q.** With C[C@H]1[C@H](F)C[C@@H](C(=O)NCc2cc(-c3cnc(C(F)(F)F)nc3)ncc2F)N1S(=O)(=O)c1ccc(Cl)s1 [Example 101, (2S,4R,5S)-1-[(5-chloro-2-thienyl)sulfonyl]-4-fluoro-N-[[5-fluoro-2-[2-(trifluoromethyl)pyrimidin-5-yl]-4-pyridyl]methyl]-5-methyl-pyrrolidine-2-carboxamide] as the compound, how does the IC50 read?
**A.** 0.545 nM

**Q.** For C[C@H]1[C@H](F)C[C@@H](C(=O)NCc2nc(-c3cnc(C(F)(F)F)nc3)ncc2C(F)(F)F)N1S(=O)(=O)c1ccc(F)cc1 [Example 135, (2S,4R,5S)-4-fluoro-1-(4-fluorophenyl)sulfonyl-5-methyl-N-[[5-(trifluoromethyl)-2-[2-(trifluoromethyl)pyrimidin-5-yl]pyrimidin-4-yl]methyl]pyrrolidine-2-carboxamide], which IC50 is on record?
**A.** 19.3 nM

**Q.** For C[C@H]1[C@H](F)C[C@@H](C(=O)NCc2cc(-c3cnc(C(F)(F)F)nc3)ncc2F)N1S(=O)(=O)c1ccc(Br)cc1 [Example 89, (2S,4R,5S)-1-(4-bromophenyl)sulfonyl-4-fluoro-N-[[5-fluoro-2-[2-(trifluoromethyl)pyrimidin-5-yl]-4-pyridyl]methyl]-5-methyl-pyrrolidine-2-carboxamide], which IC50 is on record?
**A.** 7.08 nM

**Q.** For O=C(NCc1cc(-c2cnc(C(F)(F)F)nc2)ncn1)[C@@H]1CC[C@H](C2CC2)N1S(=O)(=O)c1ccc(F)cc1 [Example 21, (2S,5R)-5-cyclopropyl-1-(4-fluorophenyl)sulfonyl-N-[[6-[2-(trifluoromethyl)pyrimidin-5-yl]pyrimidin-4-yl]methyl]pyrrolidine-2-carboxamide], which IC50 is on record?
**A.** 71.3 nM

**Q.** Which IC50 does the source give for CC1(C)[C@@H]2[C@@H](C(=O)NCc3ccc(F)c(-c4cnc(C(F)(F)F)nc4)c3)N(S(=O)(=O)c3ccc(F)cc3)C[C@@H]21 [Example 78, (1S,4S,5R)-3-(4-fluorophenyl)sulfonyl-N-[[4-fluoro-3-[2-(trifluoromethyl)pyrimidin-5-yl]phenyl]methyl]-6,6-dimethyl-3-azabicyclo[3.1.0]hexane-4-carboxamide] here?
**A.** 23.4 nM

**Q.** How did the IC50 turn out when C[C@H]1[C@H](F)C[C@@H](C(=O)NCc2cc(-c3cnc(C(F)(F)F)nc3)ncc2Cl)N1S(=O)(=O)c1ccc(F)cc1 [Example 12, (2S,4R,5S)-N-[[5-chloro-2-[2-(trifluoromethyl)pyrimidin-5-yl]-4-pyridyl]methyl]-4-fluoro-1-(4-fluorophenyl)sulfonyl-5-methyl-pyrrolidine-2-carboxamide] was run?
**A.** 2.94 nM

**Q.** C[C@H]1CC[C@@H](C(=O)NCc2cc(-c3cnc(C(F)(F)F)nc3)ncn2)N1S(=O)(=O)c1ccc(F)cc1 [Example 19, (2S,5S)-1-(4-fluorophenyl)sulfonyl-5-methyl-N-[[6-[2-(trifluoromethyl)pyrimidin-5-yl]pyrimidin-4-yl]methyl]pyrrolidine-2-carboxamide] was tested. Which IC50 did it give?
**A.** 5.22 nM

**Q.** For C[C@H]1CC[C@@H](C(=O)NCc2cc(Cl)nc(-c3cnc(C(F)(F)F)nc3)c2)N1S(=O)(=O)c1ccc(F)cc1 [Example 3, (2S,5S)—N-([2-chloro-6-[2-(trifluoromethyl)pyrimidin-5-yl]pyridin-4-yl]methyl)-1-[(4-fluorobenzene)sulfonyl]-5-methylpyrrolidine-2-carboxamide], which IC50 is on record?
**A.** 1.12 nM

**Q.** With O=C(NCc1ccc(F)c(-c2cnc(C(F)(F)F)s2)c1)[C@@H]1C[C@@H](F)CN1S(=O)(=O)c1ccc(F)cc1 [Example 77, (2S,4R)-4-fluoro-1-(4-fluorophenyl)sulfonyl-N-[[4-fluoro-3-[2-(trifluoromethyl)thiazol-5-yl]phenyl]methyl]pyrrolidine-2-carboxamide] as the compound, how does the IC50 read?
**A.** 73.3 nM

**Q.** How did the IC50 turn out when C[C@H]1[C@H](F)C[C@@H](C(=O)N(COP(=O)(O)O)Cc2cc(-c3cnc(C(F)(F)F)nc3)ncc2F)N1S(=O)(=O)c1ccc(F)cc1 [Example 157, Sodium ((2S,4R,5S)-4-fluoro-N-((5-fluoro-2-(2-(trifluoromethyl)pyrimidin-5-yl)pyridin-4-yl)methyl)-1-((4-fluorophenyl)sulfonyl)-5-methylpyrrolidine-2-carboxamido)methyl phosphate] was run?
**A.** 1200 nM

**Q.** How did the IC50 turn out when C[C@H]1CC[C@@H](C(=O)NCc2cc(-c3cnc(C(F)(F)F)nc3)nc(-c3cnc(C(F)(F)F)nc3)c2)N1S(=O)(=O)c1ccc(F)cc1 [Example 11, (2S,5S)-N-[[2,6-bis[2-(trifluoromethyl)pyrimidin-5-yl]-4-pyridyl]methyl]-1-(4-fluorophenyl)sulfonyl-5-methyl-pyrrolidine-2-carboxamide] was run?
**A.** 3.17 nM

**Q.** With CC(C)Oc1nc(CNC(=O)[C@@H]2C[C@@H](F)CN2S(=O)(=O)c2ccc(F)cc2)cc(-c2cnc(C(F)(F)F)nc2)n1 [Example 60, (2S,4R)-4-fluoro-1-(4-fluorophenyl)sulfonyl-N-[[2-isopropoxy-6-[2-(trifluoromethyl)pyrimidin-5-yl]pyrimidin-4-yl]methyl]pyrrolidine-2-carboxamide] as the compound, how does the IC50 read?
**A.** 83.1 nM

**Q.** How did the IC50 turn out when C[C@H]1[C@H](F)C[C@@H](C(=O)NCc2cc(-c3cnc(C(F)(F)F)nc3)ncc2F)N1S(=O)(=O)c1cccc(F)c1 [Example 41, (2S,4R,5S)-4-fluoro-N-((5-fluoro-2-(2-(trifluoromethyl)pyrimidin-5-yl)pyridin-4-yl)methyl)-1-(3-fluorophenylsulfonyl)-5-methylpyrrolidine-2-carboxamide] was run?
**A.** 40.5 nM

**Q.** For C[C@H]1[C@H](F)C[C@@H](C(=O)NCc2cc(-c3cnc(C(F)(F)F)nc3)nc(C3CC3)c2C(F)(F)F)N1S(=O)(=O)c1ccc(F)cc1 [Example 137, (2S,4R,5S)-N-[[2-cyclopropyl-3-(trifluoromethyl)-6-[2-(trifluoromethyl)pyrimidin-5-yl]-4-pyridyl]methyl]-4-fluoro-1-(4-fluorophenyl)sulfonyl-5-methyl-pyrrolidine-2-carboxamide], which IC50 is on record?
**A.** 0.7 nM

**Q.** O=C(NCc1ccc(F)c(-c2cnc(C(F)(F)F)nc2)c1)[C@@H]1[C@@H]2[C@H](CN1S(=O)(=O)c1ccc(F)cc1)C2(F)F [Example 69, (1R,4S,5S)-6,6-difluoro-3-(4-fluorophenyl)sulfonyl-N-[[4-fluoro-3-[2-(trifluoromethyl)pyrimidin-5-yl]phenyl]methyl]-3-azabicyclo[3.1.0]hexane-4-carboxamide] was tested. Which IC50 did it give?
**A.** 45.7 nM

**Q.** Which IC50 does the source give for C[C@H]1[C@H](F)C[C@@H](C(=O)NCc2cc(-c3cnc(C(F)(F)F)nc3)c(F)cn2)N1S(=O)(=O)c1ccc(F)cc1 [Example 34, (2S,4R,5S)-4-fluoro-N-([5-fluoro-4-[2-(trifluoromethyl)pyrimidin-5-yl]pyridin-2-yl]methyl)-1-[(4-fluorobenzene)sulfonyl]-5-methylpyrrolidine-2-carboxamide] here?
**A.** 38.8 nM

**Q.** Which IC50 does the source give for C[C@H]1[C@H](F)C[C@@H](C(=O)NCc2cc(C3CCN(CC(F)(F)F)CC3)ncc2F)N1S(=O)(=O)c1ccc(F)cc1 [Example 88, (2S,4R,5S)-4-fluoro-1-(4-fluorophenyl)sulfonyl-N-[[5-fluoro-2-[1-(2,2,2-trifluoroethyl)-4-piperidyl]-4-pyridyl]methyl]-5-methyl-pyrrolidine-2-carboxamide] here?
**A.** 42.3 nM

**Q.** For C[C@H]1[C@H](F)C[C@@H](C(=O)NCc2cc(-c3cnc(C(F)(F)F)nc3)c(OC(F)(F)F)cn2)N1S(=O)(=O)c1ccc(F)cc1 [Example 106, (2S,4R,5S)-4-fluoro-1-(4-fluorophenyl)sulfonyl-5-methyl-N-[[5-(trifluoromethoxy)-4-[2-(trifluoromethyl)pyrimidin-5-yl]-2-pyridyl]methyl]pyrrolidine-2-carboxamide], which IC50 is on record?
**A.** 2.2 nM

**Q.** For Cc1cnc(-c2cnc(C(F)(F)F)nc2)cc1CNC(=O)[C@@H]1C[C@@H](F)[C@H](C)N1S(=O)(=O)c1ccc(F)cc1 [Example 100, (2S,4R,5S)-4-fluoro-1-((4-fluorophenyl)sulfonyl)-5-methyl-N-((5-methyl-2-(2-(trifluoromethyl)pyrimidin-5-yl)pyridin-4-yl)methyl)pyrrolidine-2-carboxamide], which IC50 is on record?
**A.** 12.7 nM

**Q.** How did the IC50 turn out when C[C@H]1[C@H](F)C[C@@H](C(=O)NCc2cc(Cl)nc(-c3cnc(C(F)(F)F)nc3)c2)N1S(=O)(=O)c1ccc(F)cc1 [Example 10, (2S,4R,5S)-N-[[2-chloro-6-[2-(trifluoromethyl)pyrimidin-5-yl]-4-pyridyl]methyl]-4-fluoro-1-(4-fluorophenyl)sulfonyl-5-methyl-pyrrolidine-2-carboxamide] was run?
**A.** 2.26 nM
